From patent EP4567115A1, “METHOD FOR PRODUCING RIBOSOME IN CELL-FREE PROTEIN SYNTHESIS SYSTEM” (priority 2022, dated 2024)

Legend:
Type in all cases: biochemical, E. coli
native ribosomes = assay: Femtoliter droplet assay, control cell extract with pT7_oSD_or1_LacZ reporter; conditions: 100 µM spectinomycin, 5 nM pT7_oSD_or1_LacZ reporter
Experimental: A mixed oil consisting of light mineral oil (Sigma-Aldrich Corporation, St. Louis, MO, USA), 4.5% sorbitan monooleate (Nacalai Tesque), and 0.5% Triton® X-100 (Nacalai Tesque) was provided. The solution after the second reaction and the mixed oil were mixed and a microtube (Maruemu Corporation, Osaka, Japan) was tapped 20 times to obtain an emulsion. The resulting emulsion was incubated at 37°C for 2 hours to 17 hours, and bright field and fluorescence images of the droplets were acquired over time using a confocal fluorescence microscope LSM700 (Carl Zeiss AG, Oberkochen, Germany). The 488 nm laser was focused using an oil-immersion objective lens (Plan-Apochromat 40x/1.4 Oil DIC M27, Carl Zeiss AG) and oil-immersion oil (ImmersolTM518F, Carl Zeiss AG).
Next, a control experiment was performed using a control cell extract containing only native ribosomes and a pT7_oSD_or1_LacZ reporter. The control cell extract was mixed with 5 nM pT7_oSD_or1_LacZ reporter. In this condition, no fluorescence from native ribosomes was detected in the bulk assay (Fig. 10d).

endogenous ribosome = assay: Spectinomycin concentration optimisation, sonicated S12 cell extract with pT7_wtSD_LacZ reporter; conditions: spectinomycin concentration 5 mM
Experimental: Next, the optimal concentration of spectinomycin was examined. BL21 Star™ (DE3) lacZ::frt was transformed with a plasmid containing rRNA with or without C1192U spectinomycin resistance (SpcR). These bacterial strains were cultured in the presence of 0.1 mM IPTG for 3 hours, and the sonicated S12 cell extract and pT7_wtSD_LacZ reporter were mixed at various spectinomycin concentrations. […] Therefore, in the following experiments, the spectinomycin concentration was set to 5 mM unless otherwise specified.

[1] = biological target: T1, 30S r-protein S12 K43T mutant (Escherichia coli, UniProt P0A7S3, K43T); assay: Bulk assay of in vitro produced SSU with S12 K43T mutant, spectinomycin and streptomycin in the second reaction; conditions: SSU only; gene encoding 30S r-protein S12 K43T mutant; in the presence of spectinomycin and streptomycin
T1 construct: made in house; host or cells: cell-free transcription/translation in E. coli S150 cell extract (first reaction)
Experimental: (§1) For the second reaction, a second reaction solution was prepared which contained 3.6 µL of the cell extract, an antibiotic (200 µM spectinomycin, 20 µg/mL streptomycin, 3 mM clindamycin, or 240 nM thiostrepton), 3 nM of the reporter plasmid, and 1 mM of IPTG. Note that when the reporter plasmid expressed LacZ, the second reaction solution included 66 µM of 5-chloromethylfluorescein di-β-D-galactopyranoside (CMFDG; Invitrogen, Waltham, MA, USA) as a substrate for LacZ. In the second reaction, 15 µL of the second reaction solution was added to and mixed with 15 µL of the solution after the first reaction, and the signal of the reporter was then measured. […] The signal of the reporter was quantified at λex = 485 nm and λem = 535 nm by using a fluorescence microplate reader, Fluoroskan Ascent FL™ (Thermo Fisher Scientific) or Infinite® 200 PRO (TECAN, Mannedorf, Switzerland).
The in vitro production of ribosomal SSU was specifically performed by the following procedure. […] The fluorescence of the reaction solution was measured by a bulk assay or a femtoliter droplet assay. In the bulk assay, the reporter signal was kinetically measured at λex = 485 nm and λem = 535 nm by using a Fluoroskan Ascent FL™ (Thermo Fisher Scientific) or Infinite® 200 PRO (TECAN) at 37°C for 120 minutes, 720 minutes, or 900 minutes. […]

[2] = biological target: T2, K43T mutant of 30S r-protein S12 (Escherichia coli, UniProt P0A7S3, K43T); assay: Bulk assay of in vitro produced 70S ribosome with S12 K43T mutant (pT7_oSD_or1_LacZ reporter), with streptomycin; conditions: gene encoding K43T mutant of 30S r-protein S12; in the presence of spectinomycin and streptomycin
T2 construct: made in house; host or cells: cell-free transcription/translation in E. coli S150 cell extract (first reaction)
Experimental: as §1
(§2) A gene encoding a K43T mutant of 30S r-protein S12, which mutant confers streptomycin resistance to ribosomes, was used to produce a 70S ribosome with streptomycin resistance. […] In the second reaction, the translational activity of the ribosomal SSU was then detected by a bulk assay using the pT7_oSD_or1_LacZ reporter in the presence of spectinomycin and in the presence or absence of streptomycin.

[3] = biological target: T3, wild-type 30S r-protein S12 (Escherichia coli, UniProt P0A7S3); assay: Bulk assay of in vitro produced 70S ribosome with wild-type S12 (pT7_oSD_or1_LacZ reporter), with streptomycin; conditions: wild-type 30S r-protein S12 gene; in the presence of spectinomycin and streptomycin
T3 construct: made in house; host or cells: cell-free transcription/translation in E. coli S150 cell extract (first reaction)
Experimental: as §1, §2

[4] = system: native ribosome (Escherichia coli); assay: Bulk assay of native ribosome translational activity (LacZ reporter) with or without thiostrepton in the second reaction; conditions: in the presence of thiostrepton (120 nM, Fig. 5a); pT7PCONS_EpsA20_wtSD_lacZ reporter
Experimental: as §1
(§3) The in vitro production of ribosomal LSU was specifically performed by the following procedure. […] The fluorescence of the reaction solution was measured by a bulk assay in the same manner as in the case of the SSU.
(§4) Thiostrepton is known to inactivate an LSU by binding to 50S r-protein L11. […] In the second reaction, the translational activity of the ribosomal LSU was then detected by a bulk assay using the pT7PCONS_EpsA20_wtSD_lacZ reporter in the presence or absence of thiostrepton.

[5] = system: LSU formed using 32 different LSU r-protein genes excluding r-protein L11 gene; assay: Bulk assay of in vitro formed LSU lacking r-protein L11 (LacZ reporter) in the presence of thiostrepton; conditions: in the presence of thiostrepton (120 nM, Fig. 5b); LSU formed without r-protein L11 gene
Experimental: as §1, §3, §4

SMILES: CN[C@@H]1[C@H](O)[C@H](NC)[C@H]2O[C@@]3(O)C(=O)C[C@@H](C)O[C@H]3O[C@@H]2[C@H]1O [spectinomycin]
- fluorescence derived from native ribosomes (native ribosomes): fluorescence derived from native ribosomes can be removed
- activity of the endogenous ribosome (endogenous ribosome): strongly suppressed

SMILES: [H]/N=C(/N)N[C@H]1[C@H](O)[C@@H](O)[C@H](O[C@@H]2O[C@@H](C)[C@](O)(C=O)[C@H]2O[C@@H]2O[C@@H](CO)[C@H](O)[C@@H](O)[C@@H]2NC)[C@@H](N/C(N)=N\[H])[C@@H]1O [streptomycin]
- reporter signal [1]: the reporter signal was not affected
- reporter signal (translational activity of the ribosomal SSU) [2]: a signal was detected
- reporter signal (translational activity of the ribosomal SSU) [3]: no signal was detected

SMILES: C=C(NC(=O)C(=C)NC(=O)c1csc(C2=N[C@@H]3c4csc(n4)[C@H]4NC(=O)c5csc(n5)[C@H]([C@](C)(O)[C@@H](C)O)NC(=O)[C@H]5CSC(=N5)/C(=C/C)NC(=O)[C@H]([C@@H](C)O)NC(=O)c5csc(n5)[C@]3(CC2)NC(=O)[C@H](C)NC(=O)C(=C)NC(=O)[C@H](C)NC(=O)[C@H]([C@@H](C)CC)N[C@@H]2C=Cc3c([C@H](C)O)cc(nc3[C@H]2O)C(=O)O[C@@H]4C)n1)C(N)=O [thiostrepton]
- signal of LSU (activity of the native ribosome) [4]: the signal of LSU disappeared
- LSU signal [5]: An LSU signal was detected
